Legend:
[1] = molecular target: T1, Phospho-EGFR (Tyr1068) in H1975 cells (Homo sapiens, UniProt P00533, L858R/T790M); experiment: HTRF pEGFR/total EGFR in H1975 cells; assay type: cell-based; details: ratio pEGFR/total EGFR, compound 3 hours
T1 construct: host or cells: H1975
Experimental: (§1) H1975 cells (ATCC CRL-5908) were plated at 20,000 cells per well in 96 well plates and placed at 37° C. 5% CO2. Once adhered (after 24 h) cells were treated with compounds dissolved in DMSO at a final concentration of 0.1% DMSO in media. Compounds were diluted in media then added to cells for 3 hours in duplicate. Compound and media were removed from the cells, then 50 ul of HTRF lysis buffer is added (lysis buffer was diluted from 4× stock to 1× in DI water, with 1% blocking agent also added). Cells were lysed on a plate shaker (2000 rpm) for 30 minutes at room temperature. pEGFR expression was monitored using the Cisbio Phospho-EGFR (Tyri068) cellular kit (64EG1PEH). Total EGFR expression was monitored using the Cisbio Total EGFR cellular kit (64NG1PEH) as per manufacturer's instructions. Fluorescence emission was read at two different wavelengths (665 nm and 620 nm) on a PheraStar. Results were calculated as ratio of pEGFR/total EGFR and then percentage of 0 μM control.

[2] = molecular target: T2, Phospho-EGFR (Tyr1068) in H1975 C797S cells (CRISPR-edited EGFR C797S) (Homo sapiens, UniProt P00533, C797S/L858R/T790M); experiment: HTRF pEGFR/total EGFR in H1975 C797S cells; assay type: cell-based; details: ratio pEGFR/total EGFR, compound 3 hours
T2 construct: host or cells: H1975 C797S (CRISPR-edited)
Experimental: as §1, with “[…]. Once” for “H1975 cells (ATCC CRL-5908) were plated at 20,000 cells per well in 96 well plates and placed at 37° C. 5% CO2. Once”, “buffer was” for “buffer is”, “Phospho-EGFR (Tyr1068)” for “Phospho-EGFR (Tyri068)”

[3] = molecular target: T3, Phospho-EGFR (Tyr1068) in A431 cells (Homo sapiens, UniProt P00533); experiment: HTRF pEGFR/total EGFR in A431 cells with EGF stimulation; assay type: cell-based; details: ratio pEGFR/total EGFR, compound 2.5 hours then 100 ng/ml EGF 30 mins
T3 construct: endogenous in cells; host or cells: A431
Experimental: Cells were plated at 20,000 cells per well in 96 well plates and placed at 37° C. 5% CO2. Once adhered (after 24 h) cells were treated with compounds dissolved in DMSO at a final concentration of 0.1% DMSO in media. Compounds were diluted in media then added to cells for 2.5 hours in duplicate, 100 ng/ml EGF (ThermoFisher, PHG0311) was added to all compound treated cells as well as a control for 30 mins. Compound and media were removed from the cells, then 50 ul of HTRF lysis buffer was added (lysis buffer was diluted from 4× stock to 1× in DI water, with 1% blocking agent also added). Cells were lysed on a plate shaker (2000 rpm) for 30 minutes at room temperature. pEGFR expression was monitored using the Cisbio Phospho-EGFR (Tyr1068) cellular kit (64EG1PEH). Total EGFR expression was monitored using the Cisbio Total EGFR cellular kit (64NG1PEH) as per manufacturer's instructions. Fluorescence emission was read at two different wavelengths (665 nm and 620 nm) on a PheraStar. Results were calculated as ratio of pEGFR/total EGFR and then percentage of 0 μM control.

[4] = molecular target: CtermHisTag-mEGFR Wild type (Homo sapiens, UniProt P00533); experiment: biochemical
CtermHisTag-mEGFR Wild type, sequence (P00533 whole entry): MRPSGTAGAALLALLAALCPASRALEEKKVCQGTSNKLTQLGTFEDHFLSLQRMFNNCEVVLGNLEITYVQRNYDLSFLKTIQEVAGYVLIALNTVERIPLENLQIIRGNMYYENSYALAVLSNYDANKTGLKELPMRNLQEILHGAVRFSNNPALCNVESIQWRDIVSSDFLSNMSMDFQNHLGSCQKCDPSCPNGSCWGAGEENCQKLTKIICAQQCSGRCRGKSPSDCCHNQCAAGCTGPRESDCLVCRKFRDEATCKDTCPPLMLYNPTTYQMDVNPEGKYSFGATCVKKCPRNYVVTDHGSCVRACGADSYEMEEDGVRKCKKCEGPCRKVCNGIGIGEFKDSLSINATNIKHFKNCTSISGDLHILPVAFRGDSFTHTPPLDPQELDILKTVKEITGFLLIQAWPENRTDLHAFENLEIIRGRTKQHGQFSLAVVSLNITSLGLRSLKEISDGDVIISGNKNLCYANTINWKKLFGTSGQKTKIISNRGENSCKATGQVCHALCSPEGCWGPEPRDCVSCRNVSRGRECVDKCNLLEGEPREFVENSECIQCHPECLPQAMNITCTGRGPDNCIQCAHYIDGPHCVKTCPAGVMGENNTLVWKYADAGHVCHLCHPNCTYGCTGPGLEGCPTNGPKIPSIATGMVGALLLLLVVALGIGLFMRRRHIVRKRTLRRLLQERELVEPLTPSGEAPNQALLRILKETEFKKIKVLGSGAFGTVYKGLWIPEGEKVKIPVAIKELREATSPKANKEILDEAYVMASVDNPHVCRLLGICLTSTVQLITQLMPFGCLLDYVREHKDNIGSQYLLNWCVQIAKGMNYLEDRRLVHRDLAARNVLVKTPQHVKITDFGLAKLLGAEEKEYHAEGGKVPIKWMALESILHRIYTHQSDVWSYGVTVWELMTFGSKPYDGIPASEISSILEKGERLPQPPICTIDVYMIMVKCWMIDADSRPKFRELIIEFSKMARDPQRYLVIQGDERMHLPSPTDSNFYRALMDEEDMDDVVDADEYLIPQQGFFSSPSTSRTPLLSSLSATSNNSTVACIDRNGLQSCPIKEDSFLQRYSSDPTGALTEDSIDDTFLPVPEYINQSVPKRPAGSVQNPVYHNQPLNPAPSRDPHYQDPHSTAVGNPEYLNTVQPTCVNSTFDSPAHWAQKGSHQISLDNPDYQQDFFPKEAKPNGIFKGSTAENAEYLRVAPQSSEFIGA

T3 sequence (P00533 25-1210): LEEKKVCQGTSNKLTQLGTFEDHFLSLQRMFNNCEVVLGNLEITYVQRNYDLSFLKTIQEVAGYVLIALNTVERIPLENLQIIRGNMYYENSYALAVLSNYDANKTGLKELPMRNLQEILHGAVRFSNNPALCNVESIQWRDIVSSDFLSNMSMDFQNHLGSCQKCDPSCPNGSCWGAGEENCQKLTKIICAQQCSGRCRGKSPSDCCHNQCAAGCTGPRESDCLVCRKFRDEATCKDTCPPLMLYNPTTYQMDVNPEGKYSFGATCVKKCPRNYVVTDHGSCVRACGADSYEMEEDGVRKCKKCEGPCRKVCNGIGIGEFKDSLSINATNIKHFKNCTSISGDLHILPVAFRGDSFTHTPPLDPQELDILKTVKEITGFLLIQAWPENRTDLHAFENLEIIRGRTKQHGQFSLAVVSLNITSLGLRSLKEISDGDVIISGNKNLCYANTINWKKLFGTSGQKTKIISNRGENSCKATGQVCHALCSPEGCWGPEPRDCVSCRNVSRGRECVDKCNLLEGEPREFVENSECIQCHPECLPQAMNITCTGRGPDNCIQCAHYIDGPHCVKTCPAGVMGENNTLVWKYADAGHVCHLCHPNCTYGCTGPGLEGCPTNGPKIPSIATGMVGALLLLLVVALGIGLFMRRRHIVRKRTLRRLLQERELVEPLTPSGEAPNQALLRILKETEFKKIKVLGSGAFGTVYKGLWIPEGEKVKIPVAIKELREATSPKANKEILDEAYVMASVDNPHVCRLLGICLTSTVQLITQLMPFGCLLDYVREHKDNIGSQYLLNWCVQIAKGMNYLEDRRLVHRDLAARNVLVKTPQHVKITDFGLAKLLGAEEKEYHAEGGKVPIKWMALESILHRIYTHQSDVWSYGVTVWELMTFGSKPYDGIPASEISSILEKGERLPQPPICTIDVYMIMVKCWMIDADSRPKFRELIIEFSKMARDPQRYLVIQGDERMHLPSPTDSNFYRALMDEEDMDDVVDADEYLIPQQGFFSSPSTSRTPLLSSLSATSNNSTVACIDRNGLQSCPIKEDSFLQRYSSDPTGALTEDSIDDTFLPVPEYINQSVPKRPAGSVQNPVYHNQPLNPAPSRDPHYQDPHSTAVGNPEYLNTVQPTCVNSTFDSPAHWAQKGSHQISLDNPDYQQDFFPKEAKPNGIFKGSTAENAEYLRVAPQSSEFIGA
T2 sequence (P00533 25-1210 T790M/C797S/L858R): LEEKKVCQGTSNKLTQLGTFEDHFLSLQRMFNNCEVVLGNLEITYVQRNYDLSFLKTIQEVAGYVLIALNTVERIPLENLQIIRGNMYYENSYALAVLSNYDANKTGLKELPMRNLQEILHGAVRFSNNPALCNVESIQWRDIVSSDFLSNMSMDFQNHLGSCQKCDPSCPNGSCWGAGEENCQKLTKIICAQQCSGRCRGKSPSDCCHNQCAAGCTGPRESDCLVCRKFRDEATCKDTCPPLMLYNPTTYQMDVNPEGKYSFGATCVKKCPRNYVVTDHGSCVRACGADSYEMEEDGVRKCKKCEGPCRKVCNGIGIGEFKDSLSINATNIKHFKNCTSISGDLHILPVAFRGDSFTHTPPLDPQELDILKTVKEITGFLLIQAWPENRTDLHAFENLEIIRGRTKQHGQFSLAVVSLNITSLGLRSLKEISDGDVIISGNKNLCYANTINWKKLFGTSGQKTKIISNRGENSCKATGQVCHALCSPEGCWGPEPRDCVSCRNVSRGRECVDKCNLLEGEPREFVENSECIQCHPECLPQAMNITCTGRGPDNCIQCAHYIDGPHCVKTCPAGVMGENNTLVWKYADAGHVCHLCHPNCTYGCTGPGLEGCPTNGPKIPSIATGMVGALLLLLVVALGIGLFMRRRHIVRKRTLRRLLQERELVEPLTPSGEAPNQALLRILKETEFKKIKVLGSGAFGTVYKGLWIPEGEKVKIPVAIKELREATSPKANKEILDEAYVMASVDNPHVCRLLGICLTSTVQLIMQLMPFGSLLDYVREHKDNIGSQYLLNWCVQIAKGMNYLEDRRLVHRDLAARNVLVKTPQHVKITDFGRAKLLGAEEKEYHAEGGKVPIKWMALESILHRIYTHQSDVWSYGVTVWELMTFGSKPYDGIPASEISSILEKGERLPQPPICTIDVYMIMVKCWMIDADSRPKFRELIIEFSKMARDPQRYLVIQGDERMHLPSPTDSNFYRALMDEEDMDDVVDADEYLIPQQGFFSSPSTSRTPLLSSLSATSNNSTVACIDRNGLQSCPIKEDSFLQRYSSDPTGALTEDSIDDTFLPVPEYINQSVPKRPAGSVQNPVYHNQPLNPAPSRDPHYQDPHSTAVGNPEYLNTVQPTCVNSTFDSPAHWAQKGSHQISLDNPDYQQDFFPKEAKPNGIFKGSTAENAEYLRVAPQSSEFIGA
T1 sequence (P00533 25-1210 T790M/L858R): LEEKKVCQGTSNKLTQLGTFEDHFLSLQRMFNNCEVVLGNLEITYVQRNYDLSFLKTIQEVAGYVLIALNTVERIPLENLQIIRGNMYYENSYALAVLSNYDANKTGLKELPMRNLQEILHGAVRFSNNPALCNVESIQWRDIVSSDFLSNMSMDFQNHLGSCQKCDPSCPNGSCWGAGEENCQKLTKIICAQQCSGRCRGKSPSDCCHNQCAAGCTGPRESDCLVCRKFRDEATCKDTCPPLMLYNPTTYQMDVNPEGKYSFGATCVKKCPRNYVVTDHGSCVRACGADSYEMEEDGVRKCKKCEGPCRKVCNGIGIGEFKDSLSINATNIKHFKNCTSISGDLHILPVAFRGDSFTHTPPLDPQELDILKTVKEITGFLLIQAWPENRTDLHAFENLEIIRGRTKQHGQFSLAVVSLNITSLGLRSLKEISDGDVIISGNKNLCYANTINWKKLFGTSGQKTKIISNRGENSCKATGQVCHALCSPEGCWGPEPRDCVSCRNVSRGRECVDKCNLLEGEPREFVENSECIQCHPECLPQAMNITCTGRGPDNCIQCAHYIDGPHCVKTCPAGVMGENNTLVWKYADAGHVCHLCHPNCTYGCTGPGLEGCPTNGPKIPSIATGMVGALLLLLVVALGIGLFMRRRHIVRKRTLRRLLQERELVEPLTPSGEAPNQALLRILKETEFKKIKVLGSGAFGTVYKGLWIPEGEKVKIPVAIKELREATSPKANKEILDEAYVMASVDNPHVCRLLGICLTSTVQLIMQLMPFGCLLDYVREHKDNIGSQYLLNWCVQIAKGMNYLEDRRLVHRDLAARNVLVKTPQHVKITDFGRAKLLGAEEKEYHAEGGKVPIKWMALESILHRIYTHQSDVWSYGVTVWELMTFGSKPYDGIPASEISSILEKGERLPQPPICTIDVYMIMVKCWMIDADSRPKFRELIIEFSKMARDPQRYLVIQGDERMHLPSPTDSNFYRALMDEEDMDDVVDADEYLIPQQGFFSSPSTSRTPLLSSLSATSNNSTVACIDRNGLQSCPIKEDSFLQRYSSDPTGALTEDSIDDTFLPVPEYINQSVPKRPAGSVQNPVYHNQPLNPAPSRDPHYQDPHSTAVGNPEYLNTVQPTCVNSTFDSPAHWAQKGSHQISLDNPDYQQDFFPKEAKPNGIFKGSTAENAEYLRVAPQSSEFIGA

Work on `C#Cc1cc(=O)n(-c2ccccc2)c2nc(Nc3ccc(N4CCN(C5COC5)CC4)cc3)ncc12` [Example 18, 5-Ethynyl-2-({4-[4-(oxetan-3-yl)piperazin-1-yl]phenyl}amino)-8-phenylpyrido[2,3-d]pyrimidin-7-one] yielded an IC50 [1] of under 500 nM, an IC50 [2] of under 500 nM and an IC50 [3] of 1000 to 3000 nM. For the same molecule, the IC50 [4] was under 1000 nM.
`C#Cc1cc(=O)n(-c2ccccc2)c2nc(Nc3cnn(C4CCN(C)CC4)c3)ncc12` [Example 19, 5-Ethynyl-2-{[1-(1-methylpiperidin-4-yl)pyrazol-4-yl]amino}-8-phenylpyrido[2,3-d]pyrimidin-7-one] showed an IC50 [1] of under 500 nM, an IC50 [2] of 500 to 1000 nM and an IC50 [3] of over 3000 nM. For the same molecule, the IC50 [4] was under 1000 nM.
`C#Cc1cc(=O)n(-c2ccccc2)c2nc(Nc3ccc(N4CCCNCC4)cc3)ncc12` [Example 20, 2-{[4-(1,4-Diazepan-1-yl)phenyl]amino}-5-ethynyl-8-phenylpyrido[2,3-d]pyrimidin-7-one] was tested, and the IC50 [1] was under 500 nM, the IC50 [2] was under 500 nM and the IC50 [3] was 1000 to 3000 nM. It also gave an IC50 [4] of under 1000 nM.
In the case of `C#Cc1cc(=O)n(-c2ccccc2)c2nc(Nc3ccc(C4CCN(C)CC4)cc3)ncc12` [Example 21, 5-Ethynyl-2-{[4-(1-methylpiperidin-4-yl)phenyl]amino}-8-phenylpyrido[2,3-d]pyrimidin-7-one], the IC50 [1] is reported as under 500 nM, the IC50 [2] is reported as under 500 nM and the IC50 [3] is reported as 1000 to 3000 nM. The IC50 [4] was under 1000 nM.
Molecule `C#Cc1cc(=O)n(-c2ccccc2)c2nc(Nc3ccc(C4CCNCC4)cc3)ncc12` [Example 22, 5-Ethynyl-8-phenyl-2-{[4-(piperidin-4-yl)phenyl]amino}pyrido[2,3-d]pyrimidin-7-one] has an IC50 [1] of under 500 nM, an IC50 [2] of under 500 nM and an IC50 [3] of over 3000 nM. For the same molecule, the IC50 [4] was under 1000 nM.
With `C#Cc1cc(=O)n(-c2ccccc2)c2nc(Nc3ccc(N4CCC(N5CCN(C)CC5)CC4)cc3)ncc12` [Example 23, 5-Ethynyl-2-({4-[4-(4-methylpiperazin-1-yl)piperidin-1-yl]phenyl}amino)-8-phenylpyrido[2,3-d]pyrimidin-7-one] the IC50 [1] was under 500 nM, the IC50 [2] was under 500 nM and the IC50 [3] was 1000 to 3000 nM. The IC50 [4] was under 1000 nM.
Molecule `C#Cc1cc(=O)n(-c2ccccc2)c2nc(Nc3ccc(N4CCN(C)CC4)c(CC)c3)ncc12` [Example 24, 2-{[3-Ethyl-4-(4-methylpiperazin-1-yl)phenyl]amino}-5-ethynyl-8-phenylpyrido[2,3-d]pyrimidin-7-one] has an IC50 [1] of under 500 nM, an IC50 [2] of under 500 nM and an IC50 [3] of over 3000 nM. For the same molecule, the IC50 [4] was under 1000 nM.
For `C#Cc1cc(=O)n(-c2ccccc2)c2nc(Nc3cnn(C)c3)ncc12` [Example 25, 5-Ethynyl-2-[(1-methylpyrazol-4-yl)amino]-8-phenylpyrido[2,3-d]pyrimidin-7-one], the IC50 [1] was 1000 to 3000 nM, the IC50 [2] was 1000 to 3000 nM and the IC50 [3] was over 3000 nM. For the same molecule, the IC50 [4] was under 1000 nM.
Work on `C#Cc1cc(=O)n(-c2ccccc2)c2nc(Nc3ccc4c(c3)CCNCC4)ncc12` [Example 26, 5-ethynyl-8-phenyl-2-(2,3,4,5-tetrahydro-1H-3-benzazepin-7-ylamino)pyrido [2,3-d]pyrimidin-7-one] yielded an IC50 [1] of under 500 nM, an IC50 [2] of under 500 nM and an IC50 [3] of 1000 to 3000 nM. The IC50 [4] was under 1000 nM.
`C#Cc1cc(=O)n(-c2ccccc2)c2nc(Nc3ccc(N4CCNC(C)C4)cc3)ncc12` (stereo not drawn) [Example 27, 5-Ethynyl-2-{[4-(3-methylpiperazin-1-yl)phenyl]amino}-8-phenylpyrido[2,3-d]pyrimidin-7-one] showed an IC50 [1] of under 500 nM, an IC50 [2] of under 500 nM and an IC50 [3] of 1000 to 3000 nM. It also gave an IC50 [4] of under 1000 nM.
`C#Cc1cc(=O)n(-c2ccccc2)c2nc(Nc3ccc(N4CCC(N5CC(CO)C5)CC4)cc3)ncc12` [Example 28] gave an IC50 [1] of under 500 nM, an IC50 [2] of under 500 nM and an IC50 [3] of 1000 to 3000 nM. It also gave an IC50 [4] of under 1000 nM.
Work on `C#Cc1cc(=O)n(-c2ccccc2)c2nc(Nc3ccc(N4CCC(N5CC(N(C)C)C5)CC4)cc3)ncc12` [Example 29, 2-[(4-{4-[3-(Dimethylamino)azetidin-1-yl]piperidin-1-yl}phenyl)amino]-5-ethynyl-8-phenylpyrido[2,3-d]pyrimidin-7-one] yielded an IC50 [1] of under 500 nM, an IC50 [2] of under 500 nM and an IC50 [3] of over 3000 nM. For the same molecule, the IC50 [4] was under 1000 nM.
`C#Cc1cc(=O)n(-c2ccccc2)c2nc(Nc3ccc(N4CCC(N5CC(F)(CO)C5)CC4)cc3)ncc12` [Example 30, 5-Ethynyl-2-[(4-{4-[3-fluoro-3-(hydroxymethyl)azetidin-1-yl]piperidin-1-yl}phenyl)amino]-8-phenylpyrido[2,3-d]pyrimidin-7-one] showed an IC50 [1] of under 500 nM, an IC50 [2] of under 500 nM and an IC50 [3] of over 3000 nM. For the same molecule, the IC50 [4] was under 1000 nM.
With `C#Cc1cc(=O)n(-c2ccccc2)c2nc(Nc3ccc(N4CCN(C)CC4)c(CO)c3)ncc12` [Example 31, 5-Ethynyl-2-{[3-(hydroxymethyl)-4-(4-methylpiperazin-1-yl)phenyl]amino}-8-phenylpyrido[2,3-d]pyrimidin-7-one] the IC50 [1] was under 500 nM, the IC50 [2] was 500 to 1000 nM and the IC50 [3] was over 3000 nM. The IC50 [4] was under 1000 nM.
Molecule `C#Cc1cc(=O)n(-c2ccccc2)c2nc(Nc3ccc(N(C)CCN(C)C)c(C)c3)ncc12` [Example 32, 2-[(4-{[2-(Dimethylamino)ethyl](methyl)amino}-3-methylphenyl)amino]-5-ethynyl-8-phenylpyrido[2,3-d]pyrimidin-7-one] has an IC50 [1] of under 500 nM, an IC50 [2] of under 500 nM and an IC50 [3] of over 3000 nM. It also gave an IC50 [4] of under 1000 nM.
`C#Cc1cc(=O)n(-c2ccccc2)c2nc(Nc3ccc(N4CCC(N(C)C)CC4)cc3)ncc12` [Example 33, 2-({4-[4-(Dimethylamino)piperidin-1-yl]phenyl}amino)-5-ethynyl-8-phenylpyrido[2,3-d]pyrimidin-7-one] was tested, and the IC50 [1] was under 500 nM, the IC50 [2] was under 500 nM and the IC50 [3] was 1000 to 3000 nM. It also gave an IC50 [4] of under 1000 nM.
`C#Cc1cc(=O)n(-c2ccccc2)c2nc(Nc3ccc(N(C)CCN(C)C)cc3)ncc12` [Example 34, 2-((4-((2-(Dimethylamino)ethyl)(methyl)amino)phenyl)amino)-5-ethynyl-8-phenylpyrido[2,3-d]pyrimidin-7(8H)-one] was tested, and the IC50 [1] was under 500 nM, the IC50 [2] was over 3000 nM and the IC50 [3] was over 3000 nM. For the same molecule, the IC50 [4] was under 1000 nM.
In the case of `C#Cc1cc(=O)n(-c2ccccc2)c2nc(Nc3ccc(N(C)C(=O)CCOC)cc3OC)ncc12` [Example 36, N-(4-((5-Ethynyl-7-oxo-8-phenyl-7,8-dihydropyrido[2,3-d]pyrimidin-2-yl)amino)-3-methoxyphenyl)-3-methoxy-N-methylpropanamide], the IC50 [1] is reported as 1000 to 3000 nM, the IC50 [2] is reported as 1000 to 3000 nM and the IC50 [3] is reported as over 3000 nM. It also gave an IC50 [4] of 1000 to 10000 nM.
With `C#Cc1cc(=O)n(-c2ccccc2)c2nc(Nc3ccc(N4CCN(C)CC4)cc3)ncc12` [Example 37, 5-Ethynyl-2-((4-(4-methylpiperazin-1-yl)phenyl)amino)-8-phenylpyrido[2,3-d]pyrimidin-7(8H)-one] the IC50 [1] was under 500 nM, the IC50 [2] was 1000 to 3000 nM and the IC50 [3] was 1000 to 3000 nM. The IC50 [4] was under 1000 nM.
Work on `C#Cc1cc(=O)n(-c2ccccc2)c2nc(Nc3ccc(N4CCNC5(CC5)C4)cc3)ncc12` [Example 38, 2-[(4-{4,7-Diazaspiro[2.5]octan-7-yl}phenyl)amino]-5-ethynyl-8-phenylpyrido[2,3-d]pyrimidin-7-one] yielded an IC50 [1] of under 500 nM, an IC50 [2] of under 500 nM and an IC50 [3] of over 3000 nM. For the same molecule, the IC50 [4] was under 1000 nM.
`C#Cc1cc(=O)n(-c2ccccc2)c2nc(Nc3ccc(N4CCC(N5CC(COC)C5)CC4)cc3)ncc12` [Example 39, 5-Ethynyl-2-[(4-{4-[3-(methoxymethyl)azetidin-1-yl]piperidin-1-yl}phenyl)amino]-8-phenylpyrido[2,3-d]pyrimidin-7-one] gave an IC50 [1] of under 500 nM, an IC50 [2] of under 500 nM and an IC50 [3] of 1000 to 3000 nM. It also gave an IC50 [4] of under 1000 nM.
